Converted amounts (≈) assume the structure as drawn.
Columns and labels:
STAPH AUREUS 3452 = assay: Tube Dilution Assay, STAPH AUREUS 3452; format: cell-based; conditions: Staphylococcus aureus; read-out: Tube Dilution Assay, gram positive, STAPH AUREUS 3452
STAPH AUREUS 663 = assay: Tube Dilution Assay, STAPH AUREUS 663; format: cell-based; conditions: Staphylococcus aureus; read-out: Tube Dilution Assay, gram positive, STAPH AUREUS 663
STAPH AUREUS 11127 [1] = assay: Mouse Protection, STAPH AUREUS 11127; format: in vivo; conditions: Staphylococcus aureus
[2] = R.O.U.R.: recovery of the antibiotic from the urine of female rats following oral administration; format: in vivo; conditions: rat
Source text: *R.O.U.R. = % recovery of the antibiotic from the urine of female rats
following oral administration of the antibiotic.

S. TYPHIMURIUM 804 = assay: Tube Dilution Assay, S. TYPHIMURIUM 804; format: cell-based; conditions: Salmonella enterica, read-out: Tube Dilution Assay, gram negative, S. TYPHIMURIUM 804
STAPH AUREUS 11127 [3] = assay: Tube Dilution Assay, STAPH AUREUS 11127; format: cell-based; conditions: Staphylococcus aureus; read-out: Tube Dilution Assay, gram positive, STAPH AUREUS 11127
E. COLI 573 = assay: Tube Dilution Assay, E. COLI 573; format: cell-based; conditions: Escherichia coli; read-out: Tube Dilution Assay, gram negative, E. COLI 573
STAPH AUREUS 604 = assay: Tube Dilution Assay, STAPH AUREUS 604; format: cell-based; conditions: Staphylococcus aureus; read-out: Tube Dilution Assay, gram positive, STAPH AUREUS 604
PR. MIRABILIS 431 = assay: Tube Dilution Assay, PR. MIRABILIS 431; format: cell-based; conditions: Proteus mirabilis; read-out: Tube Dilution Assay, gram negative, PR. MIRABILIS 431
[4] = activity on oral administration; format: in vivo
[5] = test system: gram-positive and gram-negative organisms; assay: in vitro antibacterial tests; format: cell-based
[6] = animal tests of degradation in vivo
[7] = absorption and blood levels by the oral route; format: in vivo

In the case of `CCC1=C(C(=O)O)N2C(=O)[C@@H](NC(=O)[C@H](N)c3ccccc3)[C@H]2SC1.O=C(O)C(F)(F)F` [1(d), 7β-(D-2-Amino-2-phenylacetamido)-3-ethylceph-3-em-4-carboxylic acid, Trifluoroacetic Acid Salt], the MIC (STAPH AUREUS 3452) is reported as 1.6 µg/mL, the MIC (STAPH AUREUS 663) is reported as 0.3 µg/mL and the ED50 (STAPH AUREUS 11127 [1]) is reported as < 6 mg/kg. It also gave a dose excreted [2] of 45%, an MIC (S. TYPHIMURIUM 804) of 16 µg/mL and an MIC (STAPH AUREUS 11127 [3]) of 0.08 µg/mL. For the same compound, the MIC (E. COLI 573) was 8 µg/mL, the MIC (STAPH AUREUS 604) was 1.6 µg/mL and the MIC (PR. MIRABILIS 431) was 16 µg/mL.

For `N#CCCC1=C(C(=O)O)N2C(=O)[C@@H](NC(=O)Cc3cccs3)[C@H]2SC1` [2(c), 3-(2-Cyanoethyl)-7β-(2-thienylacetamido)ceph-3-em-4-carboxylic acid], the MIC (STAPH AUREUS 3452) was 4 µg/mL (≈ 10.6 µM), the MIC (STAPH AUREUS 663) was 0.08 µg/mL (≈ 0.212 µM) and the dose excreted [2] was 2.1%. It also gave an MIC (S. TYPHIMURIUM 804) of 16 µg/mL (≈ 42.4 µM), an MIC (STAPH AUREUS 11127 [3]) of 1 µg/mL (≈ 2.65 µM) and an MIC (E. COLI 573) of 62 µg/mL (≈ 164 µM). It also gave an MIC (STAPH AUREUS 604) of 1.25 µg/mL (≈ 3.31 µM) and an MIC (PR. MIRABILIS 431) of 31 µg/mL (≈ 82.1 µM).

With `CCC1=C(C(=O)O)N2C(=O)[C@@H](NC(=O)[C@H](N)c3ccccc3)[C@H]2SC1` [Example 4(b), 7β-(D-2-Amino-2-phenylacetamido)-3-ethylceph-3-em-4-carboxylic acid] the “activity on oral administration” value [4] was “appreciable level of activity”, the “activity against gram-positive and gram-negative organisms” value [5] was “active against gram-positive and gram-negative organisms” and the degradation in vivo [6] was “substantially resistant to degradation in vivo”. The “absorption by the oral route” value [7] was “well absorbed” and the blood levels [7] was “good blood levels”.
